Laboratory results published in patent US20210115018A1, “PIPERIDINE COMPOUNDS AS COVALENT MENIN INHIBITORS” (THE REGENTS OF THE UNIVERSITY OF MICHIGAN, priority 2018, published 2021).

System: MV4-11
Assay: 7-day proliferation assay (WST-8), cell growth inhibition
Assay type: cell-based
Conditions: Homo sapiens, MV4-11, 168 h, MV4-11 cells, 7 days
Protocol: The effect of representative Compounds of the Disclosure on cell viability was determined in a 7-day proliferation assay. Cells were maintained in the appropriate culture medium with 10% FBS at 37° C. and an atmosphere of 5% CO2.
Cells were seeded in 96-well flat bottom (Corning COSTAR, Corning, NY, cat#3595) at a density of 2,000-3,000 cells/well in 100 μl of culture medium. Compounds were serially diluted in the appropriate medium, and […] the diluted compounds were added to the appropriate wells of the cell plate. After the addition of compounds, the cells were incubated at 37° C. in an atmosphere of 5% CO2 for 7 days. Cell viability was determined using the WST (2-(2-methoxy-4-nitrophenyl)-3-(4-nitrophenyl)-5-(2,4-disulfophenyl)-2H-tetrazolium, monosodium salt) Cell Counting-8 Kit (Dojindo Molecular Technologies, Inc., Rockville, Md.) according to the manufacturers' instructions.
WST-8 reagent was added to each well at a final concentration of 10% (v/v), and then the plates were incubated at 37° C. for 1-2 hours for color development. The absorbance was measured at 450 nm using a SPECTRAmax PLUS plate reader (Molecular Devices, Sunnyvale, Calif.). The readings were normalized to the DMSO-treated cells and the half maximal inhibitory concentration (IC50) was calculated by nonlinear regression (four parameters sigmoid fitted with variable slope, least squares fit, and no constraint) analysis using the GraphPad Prism 5 software (GraphPad Software, La Jolla, Calif.).

| IC50 [nM] | Compound |
| --- | --- |
| < 50 | CC#CC(=O)N1CCCC(S(=O)(=O)c2ccc(N3CC(F)(CN4CCC([C@@](CN5CCC5)(c5cccc(F)c5)[C@H]5CCC[C@@H]5NC(=O)OC)CC4)C3)c(F)c2)C1 (stereo partly shown) [compound 109] |
| < 100 | COC(=O)N[C@H]1CCC[C@@H]1[C@](CN1CCC1)(c1cccc(F)c1)C1CCN(CC2(F)CN(c3ccc(S(=O)(=O)C4CCCN(C(=O)/C=C/CN5CCCCC5)C4)cc3F)C2)CC1 (stereo partly shown) [compound 110] |
| < 500 | C#CC(=O)N1CCCC(S(=O)(=O)c2ccc(N3CC(F)(CN4CCC([C@@](CN5CCC5)(c5cccc(F)c5)[C@H]5CCC[C@@H]5NC(=O)OC)CC4)C3)c(F)c2)C1 (stereo partly shown) [compound 111] |
| < 50 | C=CC(=O)N1CCCC(S(=O)(=O)c2ccc(N3CC(C)(CN4CCC([C@@](CN5CCC5)(c5cccc(F)c5)[C@H]5CCC[C@@H]5NC(=O)OC)CC4)C3)c(F)c2)C1 (stereo partly shown) [compound 113] |
| < 50 | CC#CC(=O)N1CC[C@@H](S(=O)(=O)c2ccc(N3CC(F)(CN4CCC([C@@](CN5CCC5)(c5cccc(F)c5)[C@H]5CCC[C@@H]5NC(=O)OC)CC4)C3)c(F)c2)C1 [compound 115] |
| < 100 | CCOC(=O)/C=C/CNC(=O)c1cccc(S(=O)(=O)c2ccc(N3CC(F)(CN4CCC([C@@](CN5CCC5)(c5cccc(F)c5)[C@H]5CCC[C@@H]5NC(=O)OC)CC4)C3)cc2)c1 [compound 119] |
| < 10 | COC(=O)N[C@H]1CCC[C@@H]1[C@](CN1CCC1)(c1cccc(F)c1)C1CCN(CC2(F)CN(c3ccc(S(=O)(=O)c4cccc(C(=O)NC/C=C/S(C)(=O)=O)c4)cc3)C2)CC1 [compound 120] |
| < 100 | COC(=O)N[C@H]1CCC[C@@H]1[C@](CN1CCC1)(c1cccc(F)c1)C1CCN(CC2(F)CN(c3ccc(S(=O)(=O)C4CCCN(C(=O)C#CCO)C4)cc3F)C2)CC1 (stereo partly shown) [compound 121] |
| < 10 | COC(=O)N[C@H]1CCC[C@@H]1[C@](CN1CCC1)(c1cccc(F)c1)C1CCN(CC2(F)CN(c3ccc(S(=O)(=O)C4CCCN(C(=O)NC/C=C/S(C)(=O)=O)C4)cc3F)C2)CC1 (stereo partly shown) [compound 123] |
| < 10 | COC(=O)N[C@H]1CCC[C@@H]1[C@](CNC(C)=O)(c1cccc(F)c1)C1CCN(CC2CN(c3ccc(S(=O)(=O)C4CN(C(=O)/C=C/CN5CCCCC5)C4)cc3)C2)CC1 [compound 129] |
| < 10 | CC#CC(=O)N1CC(S(=O)(=O)c2ccc(N3CC(CN4CCC([C@@](CNC(C)=O)(c5cccc(F)c5)[C@H]5CCC[C@@H]5NC(=O)OC)CC4)C3)cc2)C1 [compound 130] |
| < 500 | C=CC(=O)N1CCCC(S(=O)(=O)c2ccc(N3CC(F)(CN4CCC([C@@](CNC(C)=O)(c5cccc(F)c5)[C@H]5CCC[C@@H]5NC(=O)OC)CC4)C3)cc2)C1 (stereo partly shown) [compound 149] |
| < 10 | CC#CC(=O)N1CC(S(=O)(=O)c2ccc(N3CC(CN4CCC([C@@](CNC(C)=O)(c5cccc(F)c5)[C@H]5CCC[C@@H]5NC(=O)OC)CC4)C3)cc2CN2CC(F)C2)C1 [compound 164] |
| < 50 | CC#CC(=O)N1CC(S(=O)(=O)c2ccc(N3CC(F)(CN4CCC([C@@](CNC(C)=O)(c5cccc(F)c5)[C@H]5CCC[C@@H]5NC(=O)OC)CC4)C3)cc2CN2CC(F)C2)C1 [compound 178] |
| < 100 | C=CC(=O)N1CCOC[C@@H](S(=O)(=O)c2ccc(N3CC(F)(CN4CCC([C@@](CNC(=O)OC)(c5cccc(F)c5)[C@H]5CCC[C@@H]5NC(=O)OC)CC4)C3)c(F)c2)C1 [compound 180] |
| < 10 | CC#CC(=O)N1CCC[C@H](S(=O)(=O)c2ccc(N3CC(F)(CN4CCC([C@@](CN5CCC5)(c5cccc(F)c5)[C@H]5CCC[C@@H]5NC(=O)OC)CC4)C3)c(F)c2)C1 [compound 192] |
| < 500 | CC#CC(=O)N1CC[C@H](S(=O)(=O)c2ccc(N3CC(F)(CN4CCC([C@@](CN5CCC5)(c5cccc(F)c5)[C@H]5CCC[C@@H]5NC(=O)OC)CC4)C3)c(F)c2)C1 [compound 194] |
| < 10 | C=CC(=O)N1CCC[C@@H](S(=O)(=O)c2ccc(N3CC(O)(CN4CCC([C@@](CN5CCC5)(c5cccc(F)c5)[C@H]5CCC[C@@H]5NC(=O)OC)CC4)C3)cc2)C1 [compound 195] |
| < 100 | C=CC(=O)N1CCC[C@@H](S(=O)(=O)c2ccc(N3CC(CF)(CN4CCC([C@@](CN5CCC5)(c5cccc(F)c5)[C@H]5CCC[C@@H]5NC(=O)OC)CC4)C3)cc2)C1 [compound 196] |
| < 10 | C=CC(=O)N1CCC[C@@H](S(=O)(=O)c2ccc(N3CC(CN4CCC([C@@](CN5CCC5)(c5cccc(F)c5)[C@H]5CCC[C@@H]5NC(=O)OC)CC4)C3)cc2)C1 [compound 197] |
| < 500 | C=CC(=O)N1CCC[C@@H](S(=O)(=O)c2ccc(N3CC(CN4CCC([C@@](C#N)(c5cccc(F)c5)[C@H]5CCC[C@@H]5NC(=O)OC)CC4)C3)cc2)C1 [compound 201] |
| < 10 | CC#CC(=O)N1CC[C@@H](S(=O)(=O)c2ccc(N3CC(O)(CN4CCC([C@@](CN5CCC5)(c5cccc(F)c5)[C@H]5CCC[C@@H]5NC(=O)OC)CC4)C3)c(F)c2)C1 [compound 202] |
| < 10 | CC#CC(=O)N1CC(S(=O)(=O)c2ccc(N3CC(O)(CN4CCC([C@@](CN5CCC5)(c5cccc(F)c5)[C@H]5CCC[C@@H]5NC(=O)OC)CC4)C3)cc2)C1 [compound 203] |
| < 50 | COC(=O)N[C@H]1CCC[C@@H]1[C@](CN1CCC1)(c1cccc(F)c1)C1CCN(CC2CN(c3ccc(S(=O)(=O)[C@@H]4CCCN(C(=O)/C=C/CN5CCCCC5)C4)cc3)C2)CC1 [compound 204] |
| < 100 | CC#CC(=O)N1CC(S(=O)(=O)c2ccc(N3CC(O)(CN4CCC([C@@](CNC(C)=O)(c5cccc(F)c5)[C@H]5CCC[C@@H]5NC(=O)OC)CC4)C3)cc2)C1 [compound 207] |
| < 50 | C=CC(=O)N1CC[C@@H](S(=O)(=O)c2ccc(N3CC(CN4CCC([C@@](CN5CCC5)(c5cccc(F)c5)[C@H]5CCC[C@@H]5NC(=O)OC)CC4)C3)cc2CN2CC(F)C2)C1 [compound 209] |
| < 50 | CC#CC(=O)N1CC[C@@H](S(=O)(=O)c2ccc(N3CC(CN4CCC([C@@](CN5CCC5)(c5cccc(F)c5)[C@H]5CCC[C@@H]5NC(=O)OC)CC4)C3)cc2CN2CC(F)C2)C1 [compound 210] |
| < 50 | C=CC(=O)N1CCC[C@@H](S(=O)(=O)c2ccc(N3CC(C)(CN4CCC([C@@](CN5CCC5)(c5cccc(F)c5)[C@H]5CCC[C@@H]5NC(=O)OC)CC4)C3)cc2)C1 [compound 211] |

Same assay, conditions: MV4-11 cells, 7 days

| IC50 [nM] | Compound |
| --- | --- |
| < 500 | C=CC(=O)N1CCC(S(=O)(=O)c2ccc(N3CC(F)(CN4CCC([C@@](CN5CCC5)(c5cccc(F)c5)[C@H]5CCC[C@@H]5NC(=O)OC)CC4)C3)c(F)c2)C1 (stereo partly shown) [compound 107] |
| < 100 | C=CC(=O)N1CCC(S(=O)(=O)c2ccc(N3CC(F)(CN4CCC([C@@](CN5CCC5)(c5cccc(F)c5)[C@H]5CCC[C@@H]5NC(=O)OC)CC4)C3)c(F)c2)C1 (stereo partly shown) [compound 108] |
| < 50 | CC#CC(=O)N1CCCC(S(=O)(=O)c2ccc(N3CC(F)(CN4CCC([C@@](CN5CCC5)(c5cccc(F)c5)[C@H]5CCC[C@@H]5NC(=O)OC)CC4)C3)c(F)c2)C1 (stereo partly shown) [compound 114] |
